# According to article PMC6979384, “Characterization of the plant homeodomain (PHD) reader family for their histone tail interactions” (Epigenetics & Chromatin, 2020):
# Several values for one entry are separate records, joined by “and”; a condition that tells them apart may be missing. Equal values may be shown once.
# Assays:
# Assay in all cases: Histone peptide microarray
# Type in all cases: binding, human
# [1] = system: AIRE (PP); settings: AIRE (PP), GST-tagged; arrays performed twice, n of 4
# How it was run: (§1)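 Recombinant GST-PHD protein at 0.5 μM; 293-member modified histone peptide array; signals averaged from four repeats ± SD.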
# [2] = system: BAZ2B; settings: BAZ2B, GST-tagged; arrays performed twice, n of 4
# How it was run: as §1
# [3] = system: BPTF (PB); settings: BPTF (PB), GST-tagged; arrays performed twice, n of 4
# How it was run: as §1
# [4] = system: CHD4 (PPCC); settings: CHD4 (PPCC), GST-tagged; arrays performed twice, n of 4
# How it was run: as §1
# [5] = system: CHD5 (PCC); settings: CHD5 (PCC), GST-tagged; arrays performed twice, n of 4
# How it was run: as §1
# [6] = system: CHD5 (PPCC); settings: CHD5 (PPCC), GST-tagged; arrays performed twice, n of 4
# How it was run: as §1
# [7] = system: DIDO1; settings: DIDO1, GST-tagged; arrays performed twice, n of 4
# How it was run: as §1
# [8] = system: DPF2 (PPC2W2); settings: DPF2 (PPC2W2), GST-tagged; arrays performed twice, n of 4
# How it was run: as §1
# [9] = system: ING1; settings: ING1, GST-tagged; arrays performed twice, n of 4
# How it was run: as §1
# [10] = system: ING2; settings: ING2, GST-tagged; arrays performed twice, n of 4
# How it was run: as §1
# [11] = system: ING3; settings: ING3, GST-tagged; arrays performed twice, n of 4
# How it was run: as §1
# [12] = system: ING4; settings: ING4, GST-tagged; arrays performed twice, n of 4
# How it was run: as §1
# [13] = system: ING5; settings: ING5, GST-tagged; arrays performed twice, n of 4
# How it was run: as §1
# [14] = system: KDM4C (TTP); settings: KDM4C (TTP), GST-tagged; arrays performed twice, n of 4
# How it was run: as §1
# [15] = system: KDM5A (1); settings: KDM5A (1), GST-tagged; arrays performed twice, n of 4
# How it was run: as §1
# [16] = system: KDM5A (3); settings: KDM5A (3), GST-tagged; arrays performed twice, n of 4
# How it was run: as §1
# [17] = system: KDM5B (1); settings: KDM5B (1), GST-tagged; arrays performed twice, n of 4
# How it was run: as §1
# [18] = system: KDM5B (3); settings: KDM5B (3), GST-tagged; arrays performed twice, n of 4
# How it was run: as §1
# [19] = system: KDM7A; settings: KDM7A, GST-tagged; arrays performed twice, n of 4
# How it was run: as §1
# [20] = system: MLL5; settings: MLL5, GST-tagged; arrays performed twice, n of 4
# How it was run: as §1
# [21] = system: MORC3 (CW); settings: MORC3 (CW), GST-tagged; arrays performed twice, n of 4
# How it was run: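 GST-tagged PHD finger readers were expressed, purified and applied at 0.5 μM to a microarray of 293 synthetic histone peptides carrying single or combinatorial PTMs, using an optimized protocol. Binding signals are averages with standard deviation from 4 replicates.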
# [22] = system: PHF13; settings: PHF13, GST-tagged; arrays performed twice, n of 4
# How it was run: as §1
# [23] = system: PHF21A; settings: PHF21A, GST-tagged; arrays performed twice, n of 4
# How it was run: as §1
# [24] = system: PHF23; settings: PHF23, GST-tagged; arrays performed twice, n of 4
# How it was run: as §1
# [25] = system: PHF2; settings: PHF2, GST-tagged; arrays performed twice, n of 4
# How it was run: as §1
# [26] = system: PHF8; settings: PHF8, GST-tagged; arrays performed twice, n of 4
# How it was run: as §1
# [27] = system: PHRF1 (RP); settings: PHRF1 (RP), GST-tagged; arrays performed twice, n of 4
# How it was run: as §1
# [28] = system: RAG2; settings: RAG2, GST-tagged; arrays performed twice, n of 4
# How it was run: as §1
# [29] = system: SP140L; settings: SP140L, GST-tagged; arrays performed twice, n of 4
# How it was run: as §1
# [30] = system: TAF3; settings: TAF3, GST-tagged; arrays performed twice, n of 4
# How it was run: as §1
# [31] = system: TRIM66 (PB); settings: TRIM66 (PB), GST-tagged; arrays performed twice, n of 4
# How it was run: as §1
substance,measurement,setting,value
H3K27acK36me2 (21-44): H3 21-44,Array Heatmap value (peptide array binding signal),[1],0.4428 and 0.4192
same,Array Heatmap value (peptide array binding signal),[2],0.4609 and 0.4258
same,Array Heatmap value (peptide array binding signal),[3],0.3426 and 0.3388
same,Array Heatmap value (peptide array binding signal),[4],0.5418 and 0.5498
same,Array Heatmap value (peptide array binding signal),[5],0.7409 and 0.7549
same,Array Heatmap value (peptide array binding signal),[6],0.5507 and 0.5149
same,Array Heatmap value (peptide array binding signal),[7],0.6948 and 0.6464
same,Array Heatmap value (peptide array binding signal),[8],0.7163 and 0.602
same,Array Heatmap value (peptide array binding signal),[9],0.5489 and 0.5171
same,Array Heatmap value (peptide array binding signal),[10],0.6056 and 0.5874
same,Array Heatmap value (peptide array binding signal),[11],0.4824 and 0.4746
same,Array Heatmap value (peptide array binding signal),[12],0.4678 and 0.4306
same,Array Heatmap value (peptide array binding signal),[13],0.3615 and 0.3253
same,Array Heatmap value (peptide array binding signal),[14],0.4885 and 0.4721
same,Array Heatmap value (peptide array binding signal),[15],0.4783 and 0.4109
same,Array Heatmap value (peptide array binding signal),[16],0.4461 and 0.4626
same,Array Heatmap value (peptide array binding signal),[17],0.6449 and 0.6364
same,Array Heatmap value (peptide array binding signal),[18],0.4476 and 0.4512
same,Array Heatmap value (peptide array binding signal),[19],0.3413 and 0.3447
same,Array Heatmap value (peptide array binding signal),[20],0.5387 and 0.5129
same,Array Heatmap value (peptide array binding signal),[21],0.3508 and 0.3632
same,Array Heatmap value (peptide array binding signal),[22],0.6217 and 0.5883
same,Array Heatmap value (peptide array binding signal),[23],0.4478 and 0.464
same,Array Heatmap value (peptide array binding signal),[24],0.5178 and 0.5191
same,Array Heatmap value (peptide array binding signal),[25],0.5335 and 0.4712
same,Array Heatmap value (peptide array binding signal),[26],0.3474 and 0.3417
same,Array Heatmap value (peptide array binding signal),[27],0.4704 and 0.4395
same,Array Heatmap value (peptide array binding signal),[28],0.238 and 0.2335
same,Array Heatmap value (peptide array binding signal),[29],0.3702 and 0.357
same,Array Heatmap value (peptide array binding signal),[30],0.2617 and 0.2453
same,Array Heatmap value (peptide array binding signal),[31],0.5511 and 0.5888
